In the supplement of paper PMC10307832:

How the values were obtained:
Test in all cases: relative viability (nuclei count vs DMSO), 5 days (fraction); higher = more cells survive
[1] = compound: OCc1c[nH]c2ccccc12 [Indole-3-carbinol] + N=C(N)NC(=N)NCCc1ccccc1 [Phenformin] (partner 250 µM)
Summary of the method: (§1)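 Relative viability is defined as nuclei in treated wells over nuclei in vehicle wells. Duplicate plates were run and medians reported. Lung cancer cell lines in 1536-well plates were dosed by pin tool one day after seeding, with one drug or with a fixed anchor-drug dose plus five library-drug doses (not always all listed) in √10 steps, and nuclei were counted after 5 days.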

[2] = compound: OCc1c[nH]c2ccccc12 [Indole-3-carbinol] + Nc1nc2[nH]cc(CCc3ccc(C(=O)N[C@@H](CCC(=O)O)C(=O)O)cc3)c2c(=O)[nH]1 [Pemetrexed] (partner 0.2 µM)
Summary of the method: as §1

[3] = compound: OCc1c[nH]c2ccccc12 [Indole-3-carbinol] + CC(C)C[C@H](NC(=O)[C@H](Cc1ccccc1)NC(=O)c1cnccn1)B(O)O [Bortezomib] (partner 0.002 µM)
Summary of the method: as §1

[4] = compound: OCc1c[nH]c2ccccc12 [Indole-3-carbinol] + Cc1cc(Nc2cc(N3CCN(C)CC3)nc(Sc3ccc(NC(=O)C4CC4)cc3)n2)n[nH]1 [Tozasertib] (partner 0.1 µM)
Summary of the method: as §1

[5] = compound: OCc1c[nH]c2ccccc12 [Indole-3-carbinol] + C[C@]1(O)C[C@@H](c2nc(-c3ccc4ccc(-c5ccccc5)nc4c3)c3c(N)nccn32)C1 [Linsitinib] (partner 1 µM)
Summary of the method: as §1

Cell Line | relative viability ([1]; first compound 0.253 µM) | relative viability ([1]; first compound 0.8 µM) | relative viability ([1]; first compound 2.53 µM) | relative viability ([1]; first compound 8 µM) | relative viability ([2]; first compound 0.253 µM) | relative viability ([2]; first compound 0.8 µM) | relative viability ([2]; first compound 2.53 µM) | relative viability ([2]; first compound 8 µM) | relative viability ([3]; first compound 0.253 µM) | relative viability ([3]; first compound 0.8 µM) | relative viability ([3]; first compound 2.53 µM) | relative viability ([3]; first compound 8 µM) | relative viability ([4]; first compound 0.253 µM) | relative viability ([4]; first compound 0.8 µM) | relative viability ([4]; first compound 2.53 µM) | relative viability ([4]; first compound 8 µM) | relative viability ([5]; first compound 0.253 µM) | relative viability ([5]; first compound 0.8 µM) | relative viability ([5]; first compound 2.53 µM) | relative viability ([5]; first compound 8 µM)
LCLC-103H | 0.317 | 0.339 | 0.371 | 0.337 | 0.444 | 0.493 | 0.462 | 0.468 | 1.06 | 1.14 | 1.2 | 0.958 | 0.499 | 0.554 | 0.538 | 0.433 | 1.13 | 1.04 | 1.12 | 0.972
PC-14 | 0.586 | 0.536 | 0.582 | 0.5 | 0.14 | 0.127 | 0.13 | 0.146 | 0.878 | 0.971 | 0.85 | 0.874 | 0.578 | 0.585 | 0.633 | 0.554 | 0.943 | 0.882 | 0.891 | 0.903
NCI-H2228 | 0.327 | 0.354 | 0.365 | 0.383 | 0.368 | 0.335 | 0.334 | 0.344 | 1.17 | 0.876 | 0.914 | 0.911 | 0.208 | 0.303 | 0.254 | 0.265 | 0.513 | 0.934 | 0.96 | 0.604
COR-L23 | 0.413 | 0.456 | 0.41 | 0.403 | 0.193 | 0.202 | 0.198 | 0.209 | 0.926 | 1.14 | 0.899 | 0.883 | 0.201 | 0.243 | 0.296 | 0.185 | 0.962 | 0.862 | 0.993 | 0.786
NCI-H1915 | 0.383 | 0.365 | 0.368 | 0.354 | 0.466 | 0.527 | 0.513 | 0.511 | 0.968 | 0.881 | 0.973 | 0.977 | 0.409 | 0.459 | 0.449 | 0.464 | 1.09 | 1.1 | 1.1 | 1.11
